Patent US20150345047A1, “SYSTEMS AND METHODS FOR IDENTIFYING DRUG COMBINATIONS FOR REDUCED DRUG RESISTANCE IN CANCER TREATMENT” (Memorial Sloan Kettering Cancer Center, priority 2014, published 2015)

Columns and labels:
Assay type in all cases: cell-based
AKTpS473 = experiment: Western blot IC40 of downstream effector readout; conditions: concentration inhibiting AKTpS473 readout by 40%, SkMel133
Method: (§1) In total, cells were treated with 89 unique perturbations (Table 3). In paired combinations, each drug concentration was selected to inhibit the readout for the presumed target or the downstream effectors by 40% (IC40) as determined by Western Blot experiments. In single agent perturbations, each drug is applied at two different concentrations, IC40 and 2×IC40.

P27/Kip1 = experiment: Western blot IC40 of downstream effector readout; conditions: concentration changing P27/Kip1 readout by 40%, SkMel133
Method: as §1

BRD4 = experiment: Western blot of BRD4 level; conditions: 24 hours after treatment
Method: (§2) FIGS. 6A-6E illustrate the combined targeting of c-Myc with MEK and BRAF leads to synergistic response in melanoma cells. […] The leftward shift of isocurves implies synergistic interactions between the applied perturbations. u denotes strength of in silico perturbations. […] The BRD4 level is unchanged in response to JQ1 treatment. […] C-Myc expression is targeted with BRD4 inhibitor, JQ1. […] Cell viability is measured using the resazurin assay. […] The combination index (CI) calculated using the drug dose response curves quantifies the drug interactions between JQ1, MEKi and RAFi (left panel). CI for a given level of inhibition is a measure of the fractional shift between the combination doses (C1 and C2) and the single agent's inhibitory concentration (Cx,1, Cx,2). It is formulated as CI=(C1/Cx,1)[…](C2/Cx,2). Amax is the response of melanoma cells to JQ1, MEKi and RAFi at highest doses applied (right panel). 1-Amax is the fraction of cells alive in response to highest drug dose normalized with respect to the non-drug treated condition. […] 86% of cells are in G1 state 48 hours after JQ1 treatment, while 42% of the cells are in G1 state before drug treatment (error bars: ±SEM in 3 biological replicates).

c-Myc = experiment: Western blot of c-Myc expression; conditions: 24 hours after drug treatment, SkMel133
Method: as §2
First, it was postulated whether c-Myc levels in SkMel133 cells could be targeted using JQ1. […]

SkMel133 cells = experiment: Cell viability, resazurin assay; conditions: highest doses applied
Method: All phenotypic measurements were made in perturbation conditions identical to those in proteomic measurements. Cell viability and cell cycle progression were measured 72 hours after drug treatment using the Resazurin assay and flow cytometry analysis respectively. The percentage of cells in the G1, G2/M, and S phases and sub-G1 fraction were recorded based on the respective distribution of DNA content in each phase.

4EBP1pS65 = experiment: Western blot IC40 of downstream effector readout; conditions: concentration inhibiting 4EBP1pS65 readout by 40%, SkMel133
Method: as §1

GSK3pS21 = experiment: Western blot IC40 of downstream effector readout; conditions: concentration inhibiting GSK3pS21 readout by 40%, SkMel133
Method: as §1

MAPK1pT202 = experiment: Western blot IC40 of downstream effector readout; conditions: concentration inhibiting MAPK1pT202 readout by 40%, SkMel133
Method: as §1

S6pS240 = experiment: Western blot IC40 of downstream effector readout; conditions: concentration inhibiting S6pS240 readout by 40%, SkMel133
Method: as §1

STAT3pY705 = experiment: Western blot IC40 of downstream effector readout; conditions: concentration inhibiting STAT3pY705 readout by 40%, SkMel133
Method: as §1

Compound: O=c1[nH]c2ccccc2n1C1CCN(Cc2ccc(-c3nc4cc5nc[nH]c5cc4nc3-c3ccccc3)cc2)CC1 [AKTi 1/2]
- Dose 1 (IC40) (AKTpS473): 0.005 µM

Compound: O=C(CCCCCCSc1ccc2ccccc2c1)NO [HNHA]
- Dose 1 (IC40) (P27/Kip1): 6,000 nM

Compound: Cc1sc2c(c1C)C(c1ccc(Cl)cc1)=N[C@@H](CC(=O)OC(C)(C)C)c1nnc(C)n1-2 [JQ1]
- BRD4 level (BRD4): unchanged
- c-Myc expression level (c-Myc): reduced
- maximal effect level (Amax, response to the drugs at highest doses) (SkMel133 cells): 10%

Compound: COc1ccc(C2=NC(c3ccc(Cl)cc3)C(c3ccc(Cl)cc3)N2C(=O)N2CCNC(=O)C2)c(OC(C)C)c1 (stereo not shown) [Nutlin]
- Dose 1 (IC40) (4EBP1pS65): 3,000 nM

Compound: CC(C)(C)c1nc2c3cc[nH]c(=O)c3c3cc(F)ccc3c2[nH]1 [P6]
- Dose 1 (IC40) (GSK3pS21): 0.02 µM

Compound: O=C(NOC[C@H](O)CO)c1ccc(F)c(F)c1Nc1ccc(I)cc1F [PD0325901]
- Dose 1 (IC40) (MAPK1pT202): 0.0015 µM

Compound: CCCS(=O)(=O)Nc1ccc(F)c(C(=O)c2c[nH]c3ncc(Cl)cc23)c1F [PLX4720]
- Dose 1 (IC40) (MAPK1pT202): 0.06 µM

Compound: Cn1cc(C2=C(c3cn(CCCN)c4ccccc34)C(=O)NC2=O)c2ccccc21 [RO-31-7549]
- Dose 1 (IC40) (S6pS240): 3.5 µM

Compound: O=[N+]([O-])c1ccc2c(c1)S(=O)(=O)C=C2 [Stattic]
- Dose 1 (IC40) (STAT3pY705): 0.6 µM

Compound: CO[C@H]1C[C@@H]2CC[C@@H](C)[C@@](O)(O2)C(=O)C(=O)N2CCCC[C@H]2C(=O)O[C@H]([C@H](C)C[C@@H]2CC[C@@H](OC(=O)C(C)(CO)CO)[C@H](OC)C2)CC(=O)[C@H](C)/C=C(\C)[C@@H](O)[C@@H](OC)C(=O)[C@H](C)C[C@H](C)/C=C/C=C/C=C/1C [Temsirolimus]
- Dose 1 (IC40) (S6pS240): 0.0003 µM

Compound: FC(F)c1nc2ccccc2n1-c1nc(N2CCOCC2)nc(N2CCOCC2)n1 [ZSTK474]
- Dose 1 (IC40) (AKTpS473): 0.6 µM
